These results are taken from ChEMBL document CHEMBL3351292, “Structure-Based Design and Synthesis of Potent Cyclic Peptides Inhibiting the YAP-TEAD Protein-Protein Interaction” (ACS Med Chem Lett, 2014).

Where a SMILES comes first, the peptide text is derived from it.

For the first experiment, the target named is Transcriptional coactivator YAP1/Transcriptional enhancer factor TEF-1 (Homo sapiens) (UniProt P46937+P28347). Nature of the experiment: Inhibition of YAP/ GST-TEAD1 (unknown origin) interaction at 50 uM by surface plasmon resonance assay. It is filed as protein assay.
Transcriptional coactivator YAP1/Transcriptional enhancer factor TEF-1 (Homo sapiens), sequence (P28347 whole entry, looked up): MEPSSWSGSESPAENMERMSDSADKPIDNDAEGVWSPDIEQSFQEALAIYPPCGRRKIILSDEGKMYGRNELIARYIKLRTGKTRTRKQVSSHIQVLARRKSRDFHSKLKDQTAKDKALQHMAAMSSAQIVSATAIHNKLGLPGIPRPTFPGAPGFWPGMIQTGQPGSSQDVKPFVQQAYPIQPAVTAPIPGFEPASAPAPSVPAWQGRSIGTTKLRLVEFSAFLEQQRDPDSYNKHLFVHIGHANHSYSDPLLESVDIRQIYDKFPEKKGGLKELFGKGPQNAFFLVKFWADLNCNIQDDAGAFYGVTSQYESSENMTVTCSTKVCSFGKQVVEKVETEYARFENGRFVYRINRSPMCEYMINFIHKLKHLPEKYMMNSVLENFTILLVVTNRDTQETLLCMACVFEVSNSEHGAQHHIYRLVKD
Transcriptional coactivator YAP1/Transcriptional enhancer factor TEF-1 (Homo sapiens), sequence (P46937 whole entry, looked up): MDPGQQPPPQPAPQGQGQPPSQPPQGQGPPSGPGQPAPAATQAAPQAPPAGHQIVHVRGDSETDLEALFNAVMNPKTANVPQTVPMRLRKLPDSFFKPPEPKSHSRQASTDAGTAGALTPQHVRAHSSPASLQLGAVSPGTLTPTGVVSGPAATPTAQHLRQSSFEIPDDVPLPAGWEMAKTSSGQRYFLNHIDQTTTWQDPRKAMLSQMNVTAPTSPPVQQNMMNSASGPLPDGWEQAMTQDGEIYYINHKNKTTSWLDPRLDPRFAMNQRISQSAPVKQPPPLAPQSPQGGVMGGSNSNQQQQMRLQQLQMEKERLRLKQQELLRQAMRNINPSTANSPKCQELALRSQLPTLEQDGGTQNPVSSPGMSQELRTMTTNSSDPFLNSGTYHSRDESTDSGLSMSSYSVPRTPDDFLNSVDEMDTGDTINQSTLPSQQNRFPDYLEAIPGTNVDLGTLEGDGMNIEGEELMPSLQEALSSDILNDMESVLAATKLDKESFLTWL
Take `CSCC[C@H](NC(=O)[C@@H]1CCCN1C(=O)[C@@H](NC(=O)[C@@H](NC(=O)[C@H](CCC(N)=O)NC(=O)[C@@H]1CCCN1C(C)=O)[C@@H](C)O)C(C)C)C(=O)N[C@@H](CCCNC(=N)N)C(=O)N[C@@H](CC(C)C)C(=O)N[C@@H](CCCNC(=N)N)C(=O)N[C@@H](C)C(=O)N[C@@H](CC(C)C)C(=O)N1CCC[C@H]1C(=O)N[C@@H](CC(=O)O)C(=O)N[C@@H](CO)C(=O)N[C@@H](Cc1ccccc1)C(=O)N[C@@H](Cc1ccccc1)C(=O)N[C@@H](CCCCN)C(=O)N1CCC[C@H]1C(=O)N1CCC[C@H]1C(=O)N[C@@H](CCC(=O)O)C(N)=O` (Ac-PQTVPMRLRALPDSFFKPPE-NH2): the inhibition is 42%.
`CSCC[C@H](NC(=O)[C@@H]1CCCN1C(=O)[C@@H](NC(=O)[C@@H](NC(=O)[C@H](CCC(N)=O)NC(=O)[C@@H]1CCCN1C(C)=O)[C@@H](C)O)C(C)C)C(=O)N[C@@H](CCCNC(=N)N)C(=O)N[C@@H](CC(C)C)C(=O)N[C@@H](CCCNC(=N)N)C(=O)N[C@@H](CCCCN)C(=O)N[C@@H](C)C(=O)N1CCC[C@H]1C(=O)N[C@@H](CC(=O)O)C(=O)N[C@@H](CO)C(=O)N[C@@H](Cc1ccccc1)C(=O)N[C@@H](Cc1ccccc1)C(=O)N[C@@H](CCCCN)C(=O)N1CCC[C@H]1C(=O)N1CCC[C@H]1C(=O)N[C@@H](CCC(=O)O)C(N)=O` (Ac-PQTVPMRLRKAPDSFFKPPE-NH2): the inhibition was 0%.
`CSCC[C@H](NC(=O)[C@@H]1CCCN1C(=O)[C@@H](NC(=O)[C@@H](NC(=O)[C@H](CCC(N)=O)NC(=O)[C@@H]1CCCN1C(C)=O)[C@@H](C)O)C(C)C)C(=O)N[C@@H](CCCNC(=N)N)C(=O)N[C@@H](CC(C)C)C(=O)N[C@@H](CCCNC(=N)N)C(=O)N[C@@H](CCCCN)C(=O)N[C@@H](CC(C)C)C(=O)N[C@@H](C)C(=O)N[C@@H](CC(=O)O)C(=O)N[C@@H](CO)C(=O)N[C@@H](Cc1ccccc1)C(=O)N[C@@H](Cc1ccccc1)C(=O)N[C@@H](CCCCN)C(=O)N1CCC[C@H]1C(=O)N1CCC[C@H]1C(=O)N[C@@H](CCC(=O)O)C(N)=O` (Ac-PQTVPMRLRKLADSFFKPPE-NH2): the inhibition was 0%.
With `CSCC[C@H](NC(=O)[C@@H]1CCCN1C(=O)[C@@H](NC(=O)[C@@H](NC(=O)[C@H](CCC(N)=O)NC(=O)[C@@H]1CCCN1C(C)=O)[C@@H](C)O)C(C)C)C(=O)N[C@@H](CCCNC(=N)N)C(=O)N[C@@H](CC(C)C)C(=O)N[C@@H](CCCNC(=N)N)C(=O)N[C@@H](CCCCN)C(=O)N[C@@H](CC(C)C)C(=O)N1CCC[C@H]1C(=O)N[C@@H](CC(=O)O)C(=O)N[C@@H](C)C(=O)N[C@@H](Cc1ccccc1)C(=O)N[C@@H](Cc1ccccc1)C(=O)N[C@@H](CCCCN)C(=O)N1CCC[C@H]1C(=O)N1CCC[C@H]1C(=O)N[C@@H](CCC(=O)O)C(N)=O` (Ac-PQTVPMRLRKLPDAFFKPPE-NH2), the inhibition came out at 1.6%.
Turning to `CSCC[C@H](NC(=O)[C@@H]1CCCN1C(=O)[C@@H](NC(=O)[C@@H](NC(=O)[C@H](CCC(N)=O)NC(=O)[C@@H]1CCCN1C(C)=O)[C@@H](C)O)C(C)C)C(=O)N[C@@H](CCCNC(=N)N)C(=O)N[C@@H](CC(C)C)C(=O)N[C@@H](CCCNC(=N)N)C(=O)N[C@@H](CCCCN)C(=O)N[C@@H](CC(C)C)C(=O)N1CCC[C@H]1C(=O)N[C@@H](CC(=O)O)C(=O)N[C@@H](CO)C(=O)N[C@@H](C)C(=O)N[C@@H](Cc1ccccc1)C(=O)N[C@@H](CCCCN)C(=O)N1CCC[C@H]1C(=O)N1CCC[C@H]1C(=O)N[C@@H](CCC(=O)O)C(N)=O` (Ac-PQTVPMRLRKLPDSAFKPPE-NH2), the inhibition turned out to be 4%.
On to `CSCC[C@H](NC(=O)[C@@H]1CCCN1C(=O)[C@@H](NC(=O)[C@@H](NC(=O)[C@H](CCC(N)=O)NC(=O)[C@@H]1CCCN1C(C)=O)[C@@H](C)O)C(C)C)C(=O)N[C@@H](CCCNC(=N)N)C(=O)N[C@@H](CC(C)C)C(=O)N[C@@H](CCCNC(=N)N)C(=O)N[C@@H](CCCCN)C(=O)N[C@@H](CC(C)C)C(=O)N1CCC[C@H]1C(=O)N[C@@H](CC(=O)O)C(=O)N[C@@H](CO)C(=O)N[C@@H](Cc1ccccc1)C(N)=O` (Ac-PQTVPMRLRKLPDSF-NH2), for which the inhibition was determined as 5.4%.
For `CSCC[C@H](NC(=O)[C@@H]1CCCN1C(=O)[C@@H](NC(=O)[C@@H](NC(=O)[C@H](CCC(N)=O)NC(=O)[C@@H]1CCCN1C(C)=O)[C@@H](C)O)C(C)C)C(=O)N[C@@H](CCCNC(=N)N)C(=O)N[C@@H](CC(C)C)C(=O)N[C@@H](CCCNC(=N)N)C(=O)N[C@@H](CCCCN)C(=O)N[C@@H](CC(C)C)C(=O)N1CCC[C@H]1C(=O)N[C@@H](CC(=O)O)C(=O)N[C@@H](CO)C(=O)N[C@@H](Cc1ccccc1)C(=O)N[C@@H](C)C(=O)N[C@@H](CCCCN)C(=O)N1CCC[C@H]1C(=O)N1CCC[C@H]1C(=O)N[C@@H](CCC(=O)O)C(N)=O` (Ac-PQTVPMRLRKLPDSFAKPPE-NH2), the inhibition is 9.4%.
For the compound `CSCC[C@H](NC(=O)[C@@H]1CCCN1C(=O)[C@@H](NC(=O)[C@@H](NC(=O)[C@H](CCC(N)=O)NC(=O)[C@@H]1CCCN1C(C)=O)[C@@H](C)O)C(C)C)C(=O)N[C@@H](CCCNC(=N)N)C(=O)N[C@@H](CC(C)C)C(=O)N[C@@H](CCCNC(=N)N)C(=O)N[C@@H](CCCCN)C(=O)N[C@@H](CC(C)C)C(=O)N1CCC[C@H]1C(=O)N[C@@H](CC(=O)O)C(=O)N[C@@H](CO)C(=O)N[C@@H](Cc1ccccc1)C(=O)N[C@@H](Cc1ccccc1)C(N)=O` (Ac-PQTVPMRLRKLPDSFF-NH2), the inhibition was found to be 13%.
The same measure, in the same setting: the result for `CSCC[C@H](NC(=O)[C@@H]1CCCN1C(=O)[C@@H](NC(=O)[C@@H](NC(=O)[C@H](CCC(N)=O)NC(=O)[C@@H]1CCCN1C(C)=O)[C@@H](C)O)C(C)C)C(=O)N[C@@H](CCCNC(=N)N)C(=O)N[C@@H](CC(C)C)C(=O)N[C@@H](CCCNC(=N)N)C(=O)N[C@@H](CCCCN)C(=O)N[C@@H](CC(C)C)C(=O)N1CCC[C@H]1C(=O)N[C@@H](CC(=O)O)C(=O)N[C@@H](CO)C(=O)N[C@@H](Cc1ccccc1)C(=O)N[C@@H](Cc1ccccc1)C(=O)N[C@@H](C)C(=O)N1CCC[C@H]1C(=O)N1CCC[C@H]1C(=O)N[C@@H](CCC(=O)O)C(N)=O` (Ac-PQTVPMRLRKLPDSFFAPPE-NH2) reads 42%; that for `CSCC[C@H](NC(=O)[C@@H]1CCCN1C(=O)[C@@H](NC(=O)[C@@H](NC(=O)[C@H](CCC(N)=O)NC(=O)[C@@H]1CCCN1C(C)=O)[C@@H](C)O)C(C)C)C(=O)N[C@@H](CCCNC(=N)N)C(=O)N[C@@H](CC(C)C)C(=O)N[C@@H](CCCNC(=N)N)C(=O)N[C@@H](CCCCN)C(=O)N[C@@H](CC(C)C)C(=O)N1CCC[C@H]1C(=O)N[C@@H](CC(=O)O)C(=O)N[C@@H](CO)C(=O)N[C@@H](Cc1ccccc1)C(=O)N[C@@H](Cc1ccccc1)C(=O)N[C@@H](CCCCN)C(N)=O` (Ac-PQTVPMRLRKLPDSFFK-NH2), 14%; that for `CSCC[C@H](NC(=O)[C@@H]1CCCN1C(=O)[C@@H](NC(=O)[C@@H](NC(=O)[C@H](CCC(N)=O)NC(=O)[C@@H]1CCCN1C(C)=O)[C@@H](C)O)C(C)C)C(=O)N[C@@H](CCCNC(=N)N)C(=O)N[C@@H](CC(C)C)C(=O)N[C@@H](CCCNC(=N)N)C(=O)N[C@@H](CCCCN)C(=O)N[C@@H](CC(C)C)C(=O)N1CCC[C@H]1C(=O)N[C@@H](CC(=O)O)C(=O)N[C@@H](CO)C(=O)N[C@@H](Cc1ccccc1)C(=O)N[C@@H](Cc1ccccc1)C(=O)N[C@@H](CCCCN)C(=O)N[C@@H](C)C(=O)N1CCC[C@H]1C(=O)N[C@@H](CCC(=O)O)C(N)=O` (Ac-PQTVPMRLRKLPDSFFKAPE-NH2), 47%.
Same read-out and setting: the result for `CSCC[C@H](NC(=O)[C@@H]1CCCN1C(=O)[C@@H](NC(=O)[C@@H](NC(=O)[C@H](CCC(N)=O)NC(=O)[C@@H]1CCCN1C(C)=O)[C@@H](C)O)C(C)C)C(=O)N[C@@H](CCCNC(=N)N)C(=O)N[C@@H](CC(C)C)C(=O)N[C@@H](CCCNC(=N)N)C(=O)N[C@@H](CCCCN)C(=O)N[C@@H](CC(C)C)C(=O)N1CCC[C@H]1C(=O)N[C@@H](CC(=O)O)C(=O)N[C@@H](CO)C(=O)N[C@@H](Cc1ccccc1)C(=O)N[C@@H](Cc1ccccc1)C(=O)N[C@@H](CCCCN)C(=O)N1CCC[C@H]1C(N)=O` (Ac-PQTVPMRLRKLPDSFFKP-NH2) reads 42%.
With `CSCC[C@H](NC(=O)[C@@H]1CCCN1C(=O)[C@@H](NC(=O)[C@@H](NC(=O)[C@H](CCC(N)=O)NC(=O)[C@@H]1CCCN1C(C)=O)[C@@H](C)O)C(C)C)C(=O)N[C@@H](CCCNC(=N)N)C(=O)N[C@@H](CC(C)C)C(=O)N[C@@H](CCCNC(=N)N)C(=O)N[C@@H](CCCCN)C(=O)N[C@@H](CC(C)C)C(=O)N1CCC[C@H]1C(=O)N[C@@H](CC(=O)O)C(=O)N[C@@H](CO)C(=O)N[C@@H](Cc1ccccc1)C(=O)N[C@@H](Cc1ccccc1)C(=O)N[C@@H](CCCCN)C(=O)N1CCC[C@H]1C(=O)N1CCC[C@H]1C(N)=O` (Ac-PQTVPMRLRKLPDSFFKPP-NH2), the inhibition was 52%.
As to `CC(=O)N[C@@H](CCCNC(=N)N)C(=O)N[C@@H](CC(C)C)C(=O)N[C@@H](CCCNC(=N)N)C(=O)N[C@@H](CCCCN)C(=O)N[C@@H](CC(C)C)C(=O)N1CCC[C@H]1C(=O)N[C@@H](CC(=O)O)C(=O)N[C@@H](CO)C(=O)N[C@@H](Cc1ccccc1)C(=O)N[C@@H](Cc1ccccc1)C(=O)N[C@@H](CCCCN)C(=O)N1CCC[C@H]1C(=O)N1CCC[C@H]1C(=O)N[C@@H](CCC(=O)O)C(N)=O` (Ac-RLRKLPDSFFKPPE-NH2), the inhibition was 12%.

In a further experiment the target is Transcriptional coactivator YAP1/Transcriptional enhancer factor TEF-1 (Homo sapiens, UniProt P28347). Nature of the experiment: Inhibition of YAP/ GST-TEAD1 (unknown origin) interaction by surface plasmon resonance assay. It is filed as protein assay.
Transcriptional coactivator YAP1/Transcriptional enhancer factor TEF-1, sequence (P46937 whole entry): as the sequence (P46937 whole entry, looked up) above
Transcriptional coactivator YAP1/Transcriptional enhancer factor TEF-1, sequence (P28347 whole entry): as the sequence (P28347 whole entry, looked up) above
On to `CSCC[C@H](NC(=O)[C@@H]1CCCN1C(=O)[C@@H](NC(C)=O)C(C)C)C(=O)N[C@H]1CCSSC[C@@H](C(=O)N[C@@H](CCCCN)C(=O)N2CCC[C@H]2C(=O)N2CCC[C@H]2C(=O)N[C@@H](CCC(=O)O)C(N)=O)NC(=O)[C@H](Cc2ccccc2)NC(=O)[C@H](CO)NC(=O)[C@H](C)NC(=O)[C@@H]2CCCN2C(=O)[C@H](CCC(C)C)NC(=O)[C@H](CCCCN)NC(=O)[C@H](CCCNC(=N)N)NC(=O)[C@H](CC(C)C)NC1=O`, for which the IC50 was 0.62 µM.
Turning to `CCCCC[C@H](NC(=O)[C@@H]1CCCN1C(=O)[C@@H](NC(C)=O)C(C)C)C(=O)N[C@H]1CCSSC[C@@H](C(=O)N[C@@H](CCCCN)C(=O)N2CCC[C@H]2C(=O)N2CCC[C@H]2C(=O)N[C@@H](CCC(=O)O)C(N)=O)NC(=O)[C@H](Cc2ccccc2)NC(=O)[C@H](CO)NC(=O)[C@H](C)NC(=O)[C@@H]2CCCN2C(=O)[C@H](CCCC)NC(=O)[C@H](CCCCN)NC(=O)[C@H](CCCNC(=N)N)NC(=O)[C@H](CC(C)C)NC1=O`, the IC50 is 0.041 µM.

By inhibition is commonly meant the change of the read-out against control, counted positive when it falls. For orientation: IC50 means the concentration that gives 50% inhibition.
